Measurements as given in article PMC7970697, “Inhibition and Induction by Poziotinib of Different Rat Cytochrome P450 Enzymes In Vivo and in an In Vitro Cocktail Method” (Frontiers in Pharmacology, 2021).
Where two headings read alike, the source gives them in different places.

What was measured:
[1] = system: CYP3A4 and CYP2D6; design: method as in Kim et al., 2013; settings: LC-MS/MS; ref Kim et al., 2013; cited from earlier work
[2] = system: cyp1a2; assay: Effect of poziotinib on cyp1a2 activity in rats (phenacetin pharmacokinetics); format: in vivo, Sprague-Dawley rats; settings: poziotinib 5 mg/kg oral 7 days, phenacetin probe
Method: (§1) Twelve male Sprague-Dawley rats (230 ± 20 g) were randomly divided into treated and control groups, with 6 in each group. […] The supernatant was mixed with 200 μL of acetonitrile and 20 μL of 0.5 μg/ml diazepam (IS), vortexed for 30 s, centrifuged at 13,000 rpm for 5 min, and the supernatant was injected into the UPLC-MS/MS system for analysis.
(§2) Pharmacokinetic parameters were calculated using DAS software (Version 3.2.8). SPSS software (version 16.0; SPSS Inc., Chicago, IL, United States) was used to analyze the significance of differences between the main pharmacokinetic parameters. p < 0.05 was considered statistically significant. GraphPad (version 8.0; GraphPad Software Inc., San Diego, CA, United States) was used to calculate IC50 and plot the plasma concentration-time curves and inhibition plots (type of inhibition, time- and concentration-dependence).

[3] = target: T1, cyp2d1 (Rattus norvegicus, UniProt P10633); assay: Effect of poziotinib on cyp2d1 activity in rats (dextromethorphan pharmacokinetics); format: in vivo, Sprague-Dawley rats; design: from tissue; host or cells: living male Sprague-Dawley rats (whole animal); settings: poziotinib 5 mg/kg oral 7 days, dextromethorphan probe
T1 sequence (P10633 1-504): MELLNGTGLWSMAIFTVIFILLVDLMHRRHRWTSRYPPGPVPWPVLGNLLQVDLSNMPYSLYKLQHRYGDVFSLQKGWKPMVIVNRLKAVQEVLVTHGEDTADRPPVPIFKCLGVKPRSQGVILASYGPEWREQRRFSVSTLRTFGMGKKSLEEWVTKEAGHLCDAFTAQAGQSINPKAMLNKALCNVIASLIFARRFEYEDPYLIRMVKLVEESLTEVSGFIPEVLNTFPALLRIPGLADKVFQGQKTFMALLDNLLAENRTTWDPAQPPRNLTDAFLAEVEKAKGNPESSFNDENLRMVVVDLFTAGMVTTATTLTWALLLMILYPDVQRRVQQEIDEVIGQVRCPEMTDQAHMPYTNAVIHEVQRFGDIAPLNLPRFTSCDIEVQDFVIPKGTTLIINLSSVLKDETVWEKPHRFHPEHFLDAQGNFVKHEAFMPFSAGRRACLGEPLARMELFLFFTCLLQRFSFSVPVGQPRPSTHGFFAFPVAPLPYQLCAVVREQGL
Method: as §1, §2

[4] = target: T2, cyp2b1 (Rattus norvegicus, UniProt P00176); assay: Mechanism of inhibition (Lineweaver-Burk plots), bupropion in RLMs; format: in vitro ADME; design: from tissue; host or cells: rat liver microsomes, prepared in-house
T2 sequence (P00176 1-491): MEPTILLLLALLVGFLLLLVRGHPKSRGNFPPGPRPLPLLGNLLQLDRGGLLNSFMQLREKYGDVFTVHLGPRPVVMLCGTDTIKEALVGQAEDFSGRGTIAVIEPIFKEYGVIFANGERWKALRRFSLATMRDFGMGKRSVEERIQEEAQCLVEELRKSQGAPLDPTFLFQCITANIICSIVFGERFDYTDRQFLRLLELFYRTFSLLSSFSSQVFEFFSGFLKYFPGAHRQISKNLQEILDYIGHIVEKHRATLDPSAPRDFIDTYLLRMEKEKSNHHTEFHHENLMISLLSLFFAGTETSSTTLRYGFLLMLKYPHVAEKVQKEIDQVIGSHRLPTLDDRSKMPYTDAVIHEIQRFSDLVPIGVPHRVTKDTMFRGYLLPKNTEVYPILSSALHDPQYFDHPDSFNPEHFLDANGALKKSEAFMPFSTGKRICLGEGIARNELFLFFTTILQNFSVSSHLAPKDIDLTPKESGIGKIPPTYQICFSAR
Method: To elucidate the mechanism of inhibition of cyp2b1 and 2c11 by poziotinib, we examined the interaction of different concentrations of poziotinib with bupropion and tolbutamide, respectively. Poziotinib was preincubated with 1 mg/ml of RLMs and probe substrate in a 37°C shaking water bath for 5 min, following which NADPH was added and incubated for 30 min. The concentrations of poziotinib were 0, 2, 4, 8 and 16 μM for 2b1, 0, 5, 10 20 and 40 μM for 2c11. The concentrations of bupropion were 5, 10, 20, and 40 μM, and the concentrations of tolbutamide were 25, 50, 100, and 200 μM. Poziotinib was incubated with different concentrations of the probe substrates in triplicate. The reactions were carried out, stopped, and processed as described in 2.3. Lineweaver-Burk plots were graphed.

[5] = target: T3, cyp2c11 (Rattus norvegicus, UniProt P08683); assay: Time- and concentration-dependent inhibition in RLMs, tolbutamide; format: in vitro ADME; design: from tissue; host or cells: rat liver microsomes, prepared in-house
T3 sequence (P08683 1-500): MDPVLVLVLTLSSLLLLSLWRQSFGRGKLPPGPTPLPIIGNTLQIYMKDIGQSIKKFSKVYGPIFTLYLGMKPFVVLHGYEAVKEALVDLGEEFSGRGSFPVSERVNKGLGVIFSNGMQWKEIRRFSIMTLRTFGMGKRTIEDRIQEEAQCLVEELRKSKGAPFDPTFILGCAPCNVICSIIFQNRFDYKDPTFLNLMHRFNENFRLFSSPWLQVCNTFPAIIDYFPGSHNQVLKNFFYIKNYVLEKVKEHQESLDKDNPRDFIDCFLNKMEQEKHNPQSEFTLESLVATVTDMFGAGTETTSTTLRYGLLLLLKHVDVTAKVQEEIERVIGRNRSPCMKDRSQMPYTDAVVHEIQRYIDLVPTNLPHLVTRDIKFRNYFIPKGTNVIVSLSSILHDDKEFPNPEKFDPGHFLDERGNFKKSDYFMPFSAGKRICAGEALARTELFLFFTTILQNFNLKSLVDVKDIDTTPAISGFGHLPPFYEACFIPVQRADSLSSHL
Method: A mixture containing 1 mg/ml of RLMs, different concentrations of poziotinib (0, 2, 4, 8 and16 μM for 2b1; 0, 5, 10 20 and 40 μM for 2c11), and NADPH was pre-incubated at 37°C for 0, 5, 10, and 20 min; Methanol instead of poziotinib was performed as control. Then 20 μM bupropion or 100 μM tolbutamide was added and incubated at 37°C for 30 min. The reactions were carried out and analyzed in triplicate as described in 2.3.

[6] = target: T4, cyp2e1 (Rattus norvegicus, UniProt P05182); assay: Cocktail method IC50 in rat liver microsomes, chlorzoxazone probe; format: in vitro ADME
T4 construct: To this cocktail, 1 mg/ml of RLMs; from tissue; host or cells: rat liver microsomes, prepared in-house
T4 sequence (P05182 whole entry): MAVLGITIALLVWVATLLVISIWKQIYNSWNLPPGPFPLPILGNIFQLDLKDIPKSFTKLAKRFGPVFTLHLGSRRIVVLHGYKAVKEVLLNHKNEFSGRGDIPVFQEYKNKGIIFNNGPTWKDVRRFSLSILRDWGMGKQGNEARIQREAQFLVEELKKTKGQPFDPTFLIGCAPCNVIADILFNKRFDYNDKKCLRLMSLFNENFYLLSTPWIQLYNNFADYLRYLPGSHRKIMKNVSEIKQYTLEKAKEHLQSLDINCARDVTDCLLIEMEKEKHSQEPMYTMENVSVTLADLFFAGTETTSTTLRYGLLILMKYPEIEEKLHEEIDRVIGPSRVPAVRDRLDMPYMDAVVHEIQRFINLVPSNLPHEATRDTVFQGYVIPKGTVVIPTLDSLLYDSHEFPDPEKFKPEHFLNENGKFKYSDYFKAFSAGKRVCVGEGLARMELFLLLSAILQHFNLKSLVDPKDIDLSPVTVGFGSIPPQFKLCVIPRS
Method: The cocktail method was employed to analyze the effects of poziotinib on cyp1a2, cyp2b1, cyp2c11, cyp2d1, cyp2e1, and cyp3a1/2. […] Then half-maximal inhibitory concentration (IC50) of poziotinib was determined with all of the CYPs. […]. To this cocktail, 1 mg/ml of RLMs, 100 mM potassium phosphate buffer (pH 7.4), poziotinib (1, 2.5, 5, 10, 25, 50, or 100 μM) were added to obtain a final volume of 200 μL. After pre-incubation of this mixture for 5 min in a shaking water bath at 37°C, 1 mM NADPH was added to start the reaction. The reactions were allowed to proceed for 30 min, after which 200 μL of acetonitrile and 20 μL of IS were added to terminate the reactions. The mixtures were vortexed for 30 s and centrifuged again at 13,000 rpm for 5 min.

## C=CC(=O)N1CCC(Oc2cc3c(Nc4ccc(Cl)c(Cl)c4F)ncnc3cc2OC)CC1 [Poziotinib]
[1]
  enzymes producing main metabolites M1 (dihydroxylation) and M2 (demethylation): mainly produced by CYP3A4 and CYP2D6 activity
[2]
  effect on cyp1a2 activity in rats: induces cyp1a2 activity
[3]
  effect on cyp2d1 activity in rats: no obvious inhibitory effect
[4]; Lineweaver-Burk plots
  type of inhibition of cyp2b1: competitive
[4]; rat liver microsomes, bupropion 5-40 μM, poziotinib 0-16 μM, secondary plot
  Ki: 16.2 µM
[5]; pre-incubation 0, 5, 10, 20 min, poziotinib 5-40 μM
  time- and concentration-dependent inhibition of cyp2c11: no time- or concentration-dependent inhibitory effects
[5]; pre-incubation 0, 5, 10, 20 min with NADPH
  reversibility of inhibition of cyp2c11: reversible
[6]
  inhibitory effect on cyp2e1 (in words): did not show any obvious inhibitory effect
[6]; 40 μM chlorzoxazone, cocktail, 30 min
  IC50: 156 µM
[6]; listed as poziotinib
  inhibitory effect on cyp2e1 (in words): not obvious
